The assay concerns virus IFV A/PR/8/34. Briefly: Cytopathic effect (CPE) method, antiviral activity against influenza virus in MDCK cells, CCK-8 cell viability. The format is cell-based. The settings on record: PR/8, MDCK, 120 h, read-out: EC50 (IFV A/PR/8/34) nM. (Damage to the host cells serves as the signal in cytopathic effect assays.)

Here are results for seven compounds from patent US20230265107A1, “PB2 INHIBITOR, AND PREPARATION METHOD THEREFOR AND USE THEREOF” (priority 2020, published 2023).

In the case of `O=C(O)[C@H]1[C@H]2CC[C@H](CC2)[C@@H]1Nc1nc(-c2c[nH]c3ncc(F)cc23)nn2cc(C3CC3)cc12` [Example 8, (1R,2S,3S,4R)-3-((6-cyclopropyl-2-(5-fluoro-1H-pyrrolo[2,3-b]pyridin-3-yl)pyrrolo[2,1-f][1,2,4]triazin-4-yl)amino)bicyclo[2.2.2]octane-2-carboxylic acid], the EC50 stood at 0.8 nM. With `O=C(O)[C@H]1[C@H]2CC[C@H](CC2)[C@@H]1Nc1nc(-c2c[nH]c3ncc(F)cc23)nn2c(C(F)(F)F)ccc12` [Example 18, (1R,2S,3S,4R)-3-((2-(5-fluoro-1H-pyrrolo[2,3-b]pyridin-3-yl)-7-(trifluoromethyl)pyrrolo[2,1-f][1,2,4]triazin-4-yl)amino)bicyclo[2.2.2]octane-2-carboxylic acid], the EC50 was determined as 0.3 nM. To `COCc1ccc2c(N[C@@H]3[C@@H](C(=O)O)[C@H]4CC[C@@H]3C3CC34)nc(-c3c[nH]c4ncc(F)cc34)nn12` (stereo partly drawn) [Example 20, (1R,5S,6S,7S)-7-((2-(5-fluoro-1H-pyrrolo[2,3-b]pyridin-3-yl)-7-(methoxymethyl)pyrrolo[2,1-f][1,2,4]triazin-4-yl)amino)tricyclo[3.2.2.0^2,4]nonane-6-carboxylic acid] belongs 0.3 nM; to `O=C(O)[C@@H]1[C@@H](Nc2nc(-c3c[nH]c4ncc(F)cc34)nn3c(C(F)(F)F)ccc23)[C@@H]2CC[C@H]1C1CC12` (stereo partly drawn) [Example 30, (1R,5S,6S,7S)-7-((2-(5-fluoro-1H-pyrrolo[2,3-b]pyridin-3-yl)-7-(trifluoromethyl)pyrrolo[2,1-f][1,2,4]triazin-4-yl)amino)tricyclo[3.2.2.0^2′4]nonane-6-carboxylic acid], 0.37 nM; to `O=C(O)[C@@H]1[C@@H](Nc2nc(-c3n[nH]c4ncc(F)cc34)nn3c(C(F)(F)F)ccc23)[C@@H]2CC[C@H]1C1CC12` (stereo partly drawn) [Example 31, (1R,5S,6S,7S)-7-((2-(5-fluoro-1H-pyrazolo[3,4-b]pyridin-3-yl)-7-(trifluoromethyl)pyrrolo[2,1-f][1,2,4]triazin-4-yl)amino)tricyclo[3.2.2.0^2,4]nonane-6-carboxylic acid], 0.08 nM.

With `COCc1ccc2c(N[C@@H]3[C@@H](C(=O)O)[C@H]4CC[C@@H]3C3CC34)nc(-c3n[nH]c4ncc(F)cc34)nn12` (stereo partly drawn) [Example 32, (1R,5S,6S,7S)-7-((2-(5-fluoro-1H-pyrazolo[3,4-b]pyridin-3-yl)-7-(methoxymethyl)pyrrolo[2,1-f][1,2,4]triazin-4-yl)amino)tricyclo[3.2.2.0^2,4]nonane-6-carboxylic acid], the EC50 came out at 0.24 nM. Turning to `O=C(O)[C@@H]1[C@@H](Nc2nc(-c3n[nH]c4ncc(F)cc34)nn3c(C4CC4)ccc23)[C@@H]2CC[C@H]1C1CC12` (stereo partly drawn) [Example 38, (1R,5S,6S,7S)-7-((7-cyclopropyl-2-(5-fluoro-1H-pyrazolo[3,4-b]pyridin-3-yl)pyrrolo[2,1-f][1,2,4]triazin-4-yl)amino)tricyclo[3.2.2.0^2,4]nonane-6-carboxylic acid], the EC50 was 0.09 nM.
